Tests used:
[1] = test system: anti-cortisol antibody (ACA); assay: Competition ELISA: increasing cortisol against plate-coated phagotope for anti-cortisol antibody; type: binding; conditions: increasing amounts of cortisol, constant phage, FIG. 3
Experimental: Plates were coated with phagotopes and blocked as for the direct ELISA. […] Increasing amounts of cortisol was then added to 100 μl of specific antibody in 1% PBS-polyoxyethylene (20) sorbitan monolaurate. 100 μl replicates (4-6) of antibody/cortisol inhibitor was then left overnight.
The plates were washed and developed as for the direct ELISA. The results of these studies are illustrated in FIG. 3.

[2] = test system: anti-cortisol antibody (ACA); assay: ELISA binding of phagotopes to anti-cortisol antibody (biopanning screen); conditions: phagotope expressing peptide, FIG. 2
Experimental: Identification of reactive phagotopes was conducted by either direct, where the phagotopes are coated directly to the plate, or capture ELISA, were the phagotopes are tethered to the plate via the selection antibody. The two ELISA methods were employed because direct ELISA identifies highly reactive phagotopes that are likely to contain a strong motif, whereas the capture ELISA is more sensitive, therefore also selecting for phagotopes involving only weak interactions. For the direct ELISA, phage preparations were diluted in sterile PBS and duplicate samples of 100 μl/well were added to a 96-well microtitre plate. Plates were left overnight at 4° C., blocked for 2 hours at room temperature with 1% skimmed milk powder and 0.05% Tween 20 in PBS ph 7.4 and washed three times in Tris-buffered saline, pH 7.4, containing 0.05% polyoxyethylene (20) sorbitan monolaurate (TWEEN 20™). 100 μl of specific antibody diluted to 1 μg/ml in 1% PBS-polyoxyethylene (20) sorbitan monolaurate were added and left overnight. […] Absorbances were read at 415 nm after 30 minutes and 60 minutes. […]

[3] = test system: anti-gamma-interferon antibody; assay: Competition ELISA: increasing gamma-interferon against constant phage containing peptide mimic; type: binding; conditions: constant phage containing the mimic, detected with anti-phage antibody
Experimental: In order to identify peptide mimics, the procedure for described in Example 1 was followed. FA42™ anti-Gamma-interferon monoclonal antibody (Cellestis, Inc, Valencia, Calif.) was used in the screening of peptide mimics.
Identification of epitope sites that the peptides represented were then determined by comparing the peptide sequences with the known γ-interferon sequence. The identified peptides were then evaluated by the ability of gamma-interferon to inhibit binding of anti-γ-interferon antibody in ELISA. The results of this study is illustrated in FIG. 3 for peptide IFN-28. […] Phage binding was identified, in this study, using a specific anti-phage antibody.

[4] = test system: anti-γ-interferon antibody (FA42); assay: Competition of fluorescently tagged peptides with IFN-41 expressing phage for binding to FA42; conditions: fluorescently tagged peptide against phage
Experimental: Further analysis of the peptide mimics sought to ascertain whether these peptides operated in the same manner as they do when expressed on the surface of the phage. In order to ascertain if these peptides operated in the same manner as they do when expressed on the surface of the phage, a competition assay was performed. In this assay, the newly created peptides were used to compete with the peptides on the surface of the phage for binding to FA42.
A gradient of inhibition of IFN-41 expressing phage binding by the two peptides is shown. The control peptide (ACA-20) is a mimic of cortisol. […] Additionally, FIG. 5 illustrates gradient inhibition of IFN-41 and IFN-19 using anti-gamma-interferon antibody.

competition with IFN-41 expressing phage for binding to anti-γ-interferon antibody [4] | Substance | competition by cortisol for antibody binding [1] | anti-cortisol antibody binding [2] | other results
– | ACA 20 (1): phagotope expressing peptide with high anti-cortisol antibody binding; probably clone of ACA-20 (YFTPVFINPTQV) | overlapping, dose-response competitive binding curves | comparatively high anti-cortisol antibody binding | –
– | ACA 20 (2): phagotope expressing peptide with high anti-cortisol antibody binding; probably clone of ACA-20 (YFTPVFINPTQV) | overlapping, dose-response competitive binding curves | comparatively high anti-cortisol antibody binding | –
– | SQYENNH (CSQYENNHC; listed as Homo sapiens) [IFN-28] | – | – | competition for binding to anti-gamma-interferon antibody [3]: graded competition
competed | TQYEQHY (CTQYEQHYC; listed as Homo sapiens) [IFN-41] | – | – | –
competed | TQYSQQM (CSQYSQLYC) [IFN-19] | – | – | –
did not compete | YFTPVFINPTQV (listed as Homo sapiens) [ACA-20, control peptide in the gamma-interferon assay] | – | – | –

Source: patent US20080227222A1, “Method for the detection of target molecules by fluorescence polarization using peptide mimics” (priority 2007, published 2008)
